Reference: ChEMBL document CHEMBL1201862, “PubChem BioAssay data set” (2004)
Activity calls are given as the source filed them.

Key:
fMet-Leu-Phe receptor = fMet-Leu-Phe receptor (Homo sapiens, UniProt P21462); experiment: formyl peptide receptor binders – dose response (AID 519); format: functional
[1] = viability loss in HepG2 hepatoma cells – cell-based, ATP luminescence, cherry-pick, activator set 2, cytotoxicity control, dose response (AID 1053143); format: functional
[2] = blockers of HIV-1 ZM109 envelope-driven cell-cell fusion – HeLa effector, CEM target cells, luciferase, cherry-pick, dose response (AID 652058); format: functional, cell-based;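 further: luciferase signal from HIV-1 Env mediated cell-cell fusion of effector and target cells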
[3] = blockers of HIV-1 envelope-mediated cell-cell fusion – cherry-pick, dose response (AID 652057); format: functional, cell-based
[4] = THP-1 cell cytotoxicity, dose response, cytotoxicity control for non-replicating M. tuberculosis project (AID 489025); format: functional
[5] = off-target signal loss in HeLa-CEM21 co-culture – HeLa F-luc CTL cells, cherry-picked, counter-screen for HIV-1 Env fusion inhibitor project, dose response (AID 652040); format: functional, cell-based;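 further: potency for signal decrease marking cytotoxic or nonspecific inhibition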
[6] = HIV-1 AD8 envelope cell-cell fusion blockers – cherry-pick, dose response (AID 652062); format: functional, cell-based;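 further: luciferase signal from cell-cell fusion driven by HIV-1 clade B AD8 Env; potency is for inhibitors of fusion seen as a drop in luminescence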
[7] = HepG2 cell cytotoxicity, dose response, cytotoxicity control for non-replicating M. tuberculosis project (AID 489018); format: functional; conditions: Mycobacterium tuberculosis
Albumin = Albumin (Bos taurus, UniProt P02769); experiment: Counterscreen for inhibitors of T-cell receptor (TCR)-CD3 interaction: Fluorescence-based biochemical high throughput dose response assay to identify inhibitors of T-cell receptor (TCR)-CD3 interaction using a TAMRA-labeled BSA probe.; format: functional
Sequence of Albumin (P02769 whole entry): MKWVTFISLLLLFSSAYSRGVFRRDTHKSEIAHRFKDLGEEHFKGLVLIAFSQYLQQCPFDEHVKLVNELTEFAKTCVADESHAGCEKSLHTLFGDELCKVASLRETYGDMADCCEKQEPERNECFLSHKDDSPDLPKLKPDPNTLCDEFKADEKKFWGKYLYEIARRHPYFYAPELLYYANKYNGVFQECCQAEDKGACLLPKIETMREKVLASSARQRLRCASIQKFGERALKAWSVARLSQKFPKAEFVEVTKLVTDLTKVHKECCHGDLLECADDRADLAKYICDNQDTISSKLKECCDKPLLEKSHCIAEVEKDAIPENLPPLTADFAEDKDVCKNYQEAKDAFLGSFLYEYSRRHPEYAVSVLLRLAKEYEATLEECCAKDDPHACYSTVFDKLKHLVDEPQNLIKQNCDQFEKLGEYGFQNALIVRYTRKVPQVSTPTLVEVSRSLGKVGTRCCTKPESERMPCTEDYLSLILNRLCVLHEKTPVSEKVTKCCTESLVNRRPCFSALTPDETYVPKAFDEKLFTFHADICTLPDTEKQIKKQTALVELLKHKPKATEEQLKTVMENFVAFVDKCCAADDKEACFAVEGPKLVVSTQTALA

[8] = Vero E6 cell cytotoxicity, dose response, cytotoxicity control for non-replicating M. tuberculosis project, secondary assay (AID 492998); format: functional, VeroE6; conditions: Vero C1008
[9] = target: T1, Heat shock factor protein 1 (Mus musculus, UniProt P38532); experiment: enhancement of HSF1-driven luciferase signal – cell-based, NIH3T3, luminescence, dose retest, confirmation (AID 435004); format: functional;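 further: stress induced by proteasome inhibitor MG132 added 30 min after compound; luciferase reporter driven by HSF1 response element in NIH3T3 cells; actives raise luminescence as potentiators of the MG132 stress response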
T1 sequence (P38532 whole entry): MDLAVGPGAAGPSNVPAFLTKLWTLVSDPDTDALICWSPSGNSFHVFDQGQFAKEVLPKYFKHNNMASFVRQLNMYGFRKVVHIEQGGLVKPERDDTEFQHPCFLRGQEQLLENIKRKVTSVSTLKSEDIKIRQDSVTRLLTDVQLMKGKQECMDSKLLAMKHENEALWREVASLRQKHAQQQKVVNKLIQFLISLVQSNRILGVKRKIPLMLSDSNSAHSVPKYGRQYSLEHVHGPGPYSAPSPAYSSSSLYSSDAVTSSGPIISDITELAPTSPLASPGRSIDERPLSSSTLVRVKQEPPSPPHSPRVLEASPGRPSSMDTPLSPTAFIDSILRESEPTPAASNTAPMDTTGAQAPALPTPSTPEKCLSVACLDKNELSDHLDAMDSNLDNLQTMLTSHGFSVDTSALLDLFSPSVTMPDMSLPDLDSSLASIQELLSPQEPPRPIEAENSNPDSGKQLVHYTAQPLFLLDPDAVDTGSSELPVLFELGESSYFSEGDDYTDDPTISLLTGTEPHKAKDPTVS

Vero [10] = experiment: cells; format: functional; conditions: Chlorocebus sabaeus
Vero [11] = experiment: cells; format: functional, cell-based; conditions: Chlorocebus sabaeus
[12] = HGIII-sPLA2 enzyme inhibition potency – biochemical, QFRET, IC50, dose response (AID 743457);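 further: green fluorescence rise as the enzyme cleaves BODIPY PC-A2 in liposomes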
Large T antigen = Large T antigen (Simian virus 40, UniProt P03070); format: functional, Betapolyomavirus macacae;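 further: Confirmatory-stage PubChem screen for compounds that inhibit SV40 T antigen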
Sequence of Large T antigen (P03070 whole entry): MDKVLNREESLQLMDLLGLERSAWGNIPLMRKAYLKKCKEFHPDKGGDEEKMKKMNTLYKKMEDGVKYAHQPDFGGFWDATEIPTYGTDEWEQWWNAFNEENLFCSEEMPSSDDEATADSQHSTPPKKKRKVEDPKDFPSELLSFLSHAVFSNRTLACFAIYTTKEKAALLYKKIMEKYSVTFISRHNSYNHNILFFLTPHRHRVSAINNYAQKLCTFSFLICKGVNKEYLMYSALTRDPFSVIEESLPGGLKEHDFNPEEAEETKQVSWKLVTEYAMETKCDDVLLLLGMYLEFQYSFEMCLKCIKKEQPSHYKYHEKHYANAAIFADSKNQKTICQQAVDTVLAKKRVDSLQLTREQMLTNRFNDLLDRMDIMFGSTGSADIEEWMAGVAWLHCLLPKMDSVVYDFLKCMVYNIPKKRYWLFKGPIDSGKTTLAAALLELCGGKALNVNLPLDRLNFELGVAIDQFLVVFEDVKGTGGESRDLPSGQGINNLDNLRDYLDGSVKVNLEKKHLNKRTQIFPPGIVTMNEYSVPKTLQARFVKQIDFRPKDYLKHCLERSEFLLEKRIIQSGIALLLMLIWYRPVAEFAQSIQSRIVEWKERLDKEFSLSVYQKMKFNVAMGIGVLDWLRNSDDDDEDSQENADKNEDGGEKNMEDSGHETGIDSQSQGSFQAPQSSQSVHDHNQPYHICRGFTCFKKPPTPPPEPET

cells [13] = format: functional, cell-based
[14] = target: T2, Trace amine-associated receptor 1 (Homo sapiens, UniProt Q96RJ0); experiment: Fluorescence-based cell-based high throughput dose response assay to identify agonists of the human trace amine associated receptor 1 (TAAR1).; format: functional
T2 sequence (Q96RJ0 whole entry): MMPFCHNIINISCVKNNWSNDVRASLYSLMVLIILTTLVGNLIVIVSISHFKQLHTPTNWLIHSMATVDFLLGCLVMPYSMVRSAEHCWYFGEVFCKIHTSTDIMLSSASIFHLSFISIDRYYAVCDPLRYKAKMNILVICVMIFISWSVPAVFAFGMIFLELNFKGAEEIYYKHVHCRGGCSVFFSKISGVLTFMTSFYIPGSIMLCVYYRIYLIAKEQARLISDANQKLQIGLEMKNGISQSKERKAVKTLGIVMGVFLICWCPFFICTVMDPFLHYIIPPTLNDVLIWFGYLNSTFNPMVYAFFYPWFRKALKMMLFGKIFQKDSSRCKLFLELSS

cells [15] = format: functional, cell-based; remark: listed apart in the source
[16] = target: T2, Trace amine-associated receptor 1; experiment: Counterscreen for agonists of the human trace amine associated receptor 1 (hTAAR1): Fluorescence-based cell-based high throughput dose response assay to identify hTAAR1 agonist that also desensitize TAAR1 receptor response.; format: functional
[17] = target: T3, Histone-lysine N-methyltransferase NSD2 (Homo sapiens, UniProt O96028); format: biochemical
T3 sequence (O96028 whole entry): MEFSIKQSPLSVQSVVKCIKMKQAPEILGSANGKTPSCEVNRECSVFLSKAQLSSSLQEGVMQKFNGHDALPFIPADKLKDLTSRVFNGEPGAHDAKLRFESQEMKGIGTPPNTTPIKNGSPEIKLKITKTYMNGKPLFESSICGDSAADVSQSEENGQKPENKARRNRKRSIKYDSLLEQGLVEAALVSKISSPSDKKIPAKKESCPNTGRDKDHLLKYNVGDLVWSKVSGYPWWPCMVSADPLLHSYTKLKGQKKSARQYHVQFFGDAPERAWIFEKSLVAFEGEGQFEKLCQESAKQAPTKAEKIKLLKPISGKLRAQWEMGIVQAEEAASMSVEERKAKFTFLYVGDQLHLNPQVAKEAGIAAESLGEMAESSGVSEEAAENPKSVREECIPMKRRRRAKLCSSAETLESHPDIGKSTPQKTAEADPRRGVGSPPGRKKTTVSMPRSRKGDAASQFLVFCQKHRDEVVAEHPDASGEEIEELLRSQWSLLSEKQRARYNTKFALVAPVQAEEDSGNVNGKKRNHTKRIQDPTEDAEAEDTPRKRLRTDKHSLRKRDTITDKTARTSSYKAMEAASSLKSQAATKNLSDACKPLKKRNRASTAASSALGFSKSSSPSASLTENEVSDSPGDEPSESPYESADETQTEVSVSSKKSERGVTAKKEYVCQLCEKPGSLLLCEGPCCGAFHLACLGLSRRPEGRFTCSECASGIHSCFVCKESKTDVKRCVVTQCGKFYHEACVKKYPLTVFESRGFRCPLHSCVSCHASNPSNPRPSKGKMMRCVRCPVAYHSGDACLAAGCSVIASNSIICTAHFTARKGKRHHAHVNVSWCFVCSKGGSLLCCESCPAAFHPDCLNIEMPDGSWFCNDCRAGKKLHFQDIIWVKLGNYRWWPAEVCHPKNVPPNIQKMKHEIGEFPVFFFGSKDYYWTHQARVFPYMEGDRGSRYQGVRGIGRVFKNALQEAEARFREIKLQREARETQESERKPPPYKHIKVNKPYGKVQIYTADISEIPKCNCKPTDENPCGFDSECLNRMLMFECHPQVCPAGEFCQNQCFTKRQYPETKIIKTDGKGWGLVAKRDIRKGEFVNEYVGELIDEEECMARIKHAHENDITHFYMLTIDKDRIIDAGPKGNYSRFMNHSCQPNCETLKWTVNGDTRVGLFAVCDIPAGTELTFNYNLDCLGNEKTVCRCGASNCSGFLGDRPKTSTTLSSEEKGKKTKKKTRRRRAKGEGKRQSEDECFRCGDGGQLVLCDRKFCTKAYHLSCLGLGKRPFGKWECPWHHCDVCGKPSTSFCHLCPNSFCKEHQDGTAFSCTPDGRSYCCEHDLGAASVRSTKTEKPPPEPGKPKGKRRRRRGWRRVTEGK

[18] = target: DNA repair protein RAD52 homolog (Homo sapiens, UniProt P43351); format: functional, biochemical
Sequence of DNA repair protein RAD52 homolog (P43351 whole entry): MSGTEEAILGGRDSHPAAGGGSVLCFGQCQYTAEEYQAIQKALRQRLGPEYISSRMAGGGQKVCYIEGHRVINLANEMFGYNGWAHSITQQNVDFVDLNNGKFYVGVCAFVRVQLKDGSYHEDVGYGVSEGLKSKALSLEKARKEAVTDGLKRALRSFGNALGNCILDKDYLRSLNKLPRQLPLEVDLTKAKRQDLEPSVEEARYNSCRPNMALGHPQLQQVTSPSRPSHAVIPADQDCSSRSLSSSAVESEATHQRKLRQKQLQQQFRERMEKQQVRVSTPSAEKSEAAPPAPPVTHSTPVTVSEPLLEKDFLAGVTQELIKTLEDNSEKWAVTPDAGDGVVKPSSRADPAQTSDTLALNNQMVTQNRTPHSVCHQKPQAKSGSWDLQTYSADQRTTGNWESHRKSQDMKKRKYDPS

Protein skinhead-1 = target: T4, Protein skinhead-1 (Caenorhabditis elegans, UniProt P34707); format: functional
T4 sequence (P34707 whole entry): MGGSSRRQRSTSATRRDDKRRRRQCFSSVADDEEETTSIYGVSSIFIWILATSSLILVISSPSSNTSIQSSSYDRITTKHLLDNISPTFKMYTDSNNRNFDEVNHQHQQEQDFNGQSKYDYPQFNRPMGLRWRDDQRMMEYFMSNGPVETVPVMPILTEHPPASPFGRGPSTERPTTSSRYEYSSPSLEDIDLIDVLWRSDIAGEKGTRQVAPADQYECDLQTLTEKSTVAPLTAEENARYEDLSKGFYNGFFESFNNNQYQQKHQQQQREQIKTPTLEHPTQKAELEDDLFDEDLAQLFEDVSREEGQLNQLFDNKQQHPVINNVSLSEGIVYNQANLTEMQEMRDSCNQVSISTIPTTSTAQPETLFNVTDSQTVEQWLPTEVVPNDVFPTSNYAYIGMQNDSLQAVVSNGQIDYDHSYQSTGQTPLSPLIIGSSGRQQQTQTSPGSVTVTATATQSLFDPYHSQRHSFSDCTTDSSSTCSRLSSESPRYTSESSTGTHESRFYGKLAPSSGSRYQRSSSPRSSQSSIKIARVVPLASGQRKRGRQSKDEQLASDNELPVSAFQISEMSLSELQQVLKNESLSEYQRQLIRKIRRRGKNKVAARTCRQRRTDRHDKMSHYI

[19] = target: Fructose-bisphosphate aldolase (Mycobacterium tuberculosis, UniProt P9WQA3); experiment: Fluorescence-based biochemical high throughput dose response assay for inhibitors of the fructose-bisphosphate aldolase (FBA) of M. tuberculosis.; format: functional
Sequence of Fructose-bisphosphate aldolase (P9WQA3 whole entry): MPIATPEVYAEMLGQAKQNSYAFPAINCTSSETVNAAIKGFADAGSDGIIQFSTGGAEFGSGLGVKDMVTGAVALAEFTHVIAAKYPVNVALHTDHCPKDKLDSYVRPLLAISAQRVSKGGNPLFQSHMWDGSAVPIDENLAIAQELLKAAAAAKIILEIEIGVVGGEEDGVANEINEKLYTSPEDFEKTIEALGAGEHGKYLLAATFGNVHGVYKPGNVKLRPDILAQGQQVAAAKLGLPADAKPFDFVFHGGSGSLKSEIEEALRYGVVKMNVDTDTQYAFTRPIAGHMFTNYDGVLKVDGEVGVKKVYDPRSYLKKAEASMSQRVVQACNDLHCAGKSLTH

Paired box protein Pax-8 = Paired box protein Pax-8 (Homo sapiens, UniProt Q06710); experiment: PAX8 transcriptional activity inhibition in RMG-I – RMG-I cells, luciferase, cherry-pick, dose response (AID 687027); format: functional, cell-based;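 further: luciferase reporter driven by Pax8 target thyroperoxidase promoter measured by SteadyGlo luminescence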
Sequence of Paired box protein Pax-8 (Q06710 whole entry): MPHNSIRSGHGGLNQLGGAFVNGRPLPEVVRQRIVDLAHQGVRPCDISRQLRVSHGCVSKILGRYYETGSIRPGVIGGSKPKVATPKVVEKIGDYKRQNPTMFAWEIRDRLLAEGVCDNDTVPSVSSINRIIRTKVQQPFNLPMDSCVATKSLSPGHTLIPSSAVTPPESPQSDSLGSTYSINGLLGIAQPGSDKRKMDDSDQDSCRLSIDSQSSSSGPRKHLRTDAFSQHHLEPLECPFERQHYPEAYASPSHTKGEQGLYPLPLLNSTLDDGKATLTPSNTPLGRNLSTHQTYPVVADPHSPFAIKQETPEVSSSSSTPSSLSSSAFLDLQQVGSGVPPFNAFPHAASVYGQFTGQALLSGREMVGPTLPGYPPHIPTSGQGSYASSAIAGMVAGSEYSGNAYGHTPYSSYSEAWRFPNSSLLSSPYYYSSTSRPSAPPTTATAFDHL

[20] = OVCAR8 cell viability loss – plate reader, dry powder samples, PAX8 project, dose response (AID 743197); format: functional, cell-based; conditions: OVCAR-8
[21] = IGROV1 cell killing – plate reader, dry powder samples, PAX8 inhibitor project, dose response (AID 743043); format: functional, cell-based; conditions: IGROV-1
[22] = OVCAR-3 cell viability loss – plate reader, dry powder samples, PAX8 inhibitor project, dose response (AID 743044); format: functional, cell-based
[23] = Late stage assay provider results from the probe development effort to identify selective inhibitors of heat shock protein 90 (HSP90): Absorbance-based cell proliferation assay in SKBR3 cells.; format: functional; conditions: SK-BR-3
[24] = Late stage assay provider results from the probe development effort to identify selective inhibitors of heat shock protein 90 (HSP90): Absorbance-based cell proliferation assay in MCF7 cells.; format: functional

Sequence of fMet-Leu-Phe receptor (P21462 whole entry): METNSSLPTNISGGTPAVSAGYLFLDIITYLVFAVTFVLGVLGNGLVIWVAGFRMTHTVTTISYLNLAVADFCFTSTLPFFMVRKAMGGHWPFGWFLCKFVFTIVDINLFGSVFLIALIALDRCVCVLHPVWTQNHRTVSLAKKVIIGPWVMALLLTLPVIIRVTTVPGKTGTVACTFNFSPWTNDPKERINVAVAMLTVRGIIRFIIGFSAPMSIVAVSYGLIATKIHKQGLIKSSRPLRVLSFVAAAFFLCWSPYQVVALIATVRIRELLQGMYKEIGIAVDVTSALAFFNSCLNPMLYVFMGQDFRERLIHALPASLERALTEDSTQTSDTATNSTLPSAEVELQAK

CCc1cc2c(=O)c(-c3nc4ccccc4n3C)c(COCC(=O)O)oc2cc1OC(=O)C(C)(C)C
Ki (fMet-Leu-Phe receptor): > 66.7 µM (inactive)

COc1ccc(Nc2ccnc(Nc3ccc(OC)cc3)n2)cc1
AC50 [1]: 26 µM (active)

CC1=NN(C(=O)c2ccccc2)C(O)(c2ccc(Br)cc2)C1 (centres undefined)
AC50 [2]: 8 µM (active) | AC50 [3]: 9.38 µM (active) | CC50 [4]: 22.8 µM (active) | AC50 [5]: 21.6 µM (active) | AC50 [6]: 42.2 µM (active) | CC50 [7]: > 20 µM (active) | IC50 (Albumin): > 94.2 µM (inactive) | CC50 [8]: > 20 µM (active)

CCOc1ccc(C(=O)CCC(=O)NNC(=O)c2ccccc2O)cc1
IC50 (Albumin): > 94.1 µM (inactive)

O=C(Nc1ccc(Cl)cn1)c1ccc([N+](=O)[O-])o1
EC50 [9]: 20.8 µM (active) | CC50 (Vero [10]): 16.9 µM (active) | IC50 (Vero [11]): > 25 µM (active) | AC50 [1]: 26 µM (active)

CNc1nn(-c2cccc(Cl)c2)nc1N
IC50 [12]: > 122 µM (inactive) | IC50 (Large T antigen): 29.9 µM (active) | Ki (fMet-Leu-Phe receptor): > 66.7 µM (inactive)

Cc1cc(C(=O)CN2C(=O)C(=O)N(C3CCCC3)C2=O)c(C)n1CCc1ccc(F)cc1
EC50 (cells [13]): > 29.9 µM (inactive) | EC50 [14]: 2.96 µM (active) | IC50 (cells [15]): > 29.9 µM (inactive) | IC50 [16]: 5.57 µM (active)

Cc1c(C)n(Cc2ccccc2)c2ccc(C(=O)OCCN(C)C)cc12
AC50 [17]: > 20 µM (inactive) | AC50 [18]: 14 µM (active) | IC50 (Protein skinhead-1): 58.2 µM (inactive)

CCc1c(C)nc2c(-c3ccccc3)cnn2c1O
IC50 [12]: > 122 µM (inactive) | IC50 [19]: 3.39 µM (active)

COc1ccccc1S(=O)(=O)N(C)C[C@H]1Oc2cc(C#CCC3CCCC3)ccc2S(=O)(=O)N([C@H](C)CO)C[C@H]1C
AC50 (Paired box protein Pax-8): 4.83 µM (active) | AC50 [20]: 64 µM (active) | AC50 [21]: 55.4 µM (active) | AC50 [22]: 35.5 µM (active)

CC(C)[C@H](NC(=O)C1CC1)C(=O)N1CCC[C@H]1C(=O)NCCc1ccccc1Cl
EC50 (cells [13]): > 29.9 µM (inactive) | EC50 [14]: 3.03 µM (active) | IC50 (cells [15]): > 29.9 µM (inactive) | IC50 [16]: 3.18 µM (active)

N#Cc1cc2ccc(OCc3cccc(C(=O)O)c3)cc2oc1=O
IC50 [23]: > 100 µM (inactive) | IC50 [24]: > 100 µM (inactive)

COC(=O)c1cccc(COc2ccc3cc(C#N)c(=O)oc3c2)c1
IC50 [23]: > 100 µM (inactive) | IC50 [24]: > 100 µM (inactive)
